Patent US7579325B2, “Drugs containing reduced of vitamin B2” (Eisai R & D Management Co., Ltd., priority 2001, dated 2009)

Key:
E. coli E01292 strain = assay: Effect on E. coli-infected model (mouse survival); format: in vivo; conditions: for survival number / survival rate %: male ICR mice, 10 per group, 4 days after inoculation
Procedure: Twelve mg of riboflavin sodium phosphate (FMN-Na, JP grade) was dissolved in 40 ml of physiological saline and then added and mixed with 480 mg of sodium hydrosulfite to produce leucoflavin phosphate (FMN-H2).
Male mice (Slc: ICR, 8-week old) (10 mice per each test group) was administered intraperitoneally with each of riboflavin sodium phosphate (dosage: 12.5, 25, 50 and 100 mg/kg in dosage volumes of 0.125, 0.25, 0.5 and 1 ml, respectively) and leucoflavin phosphate (dosage: 1.25, 2.5, 5 and 10 mg/kg in dosage volumes of 0.125, 0.25, 0.5 and 1 ml, respectively) which had been dissolved in physiological saline and sterilized by filtration. Twenty-four hours after the administration, E. coli E01292 strain was inoculated subcutaneously at a dose of 5.3×10^7 CFU/mouse (suspended in 0.2 ml of physiological saline), and the survival rate was determined 4 days after the inoculation. In the control group, 1.0 ml of physiological saline was administered intraperitoneally instead of the drugs. The determination of the medicinal efficacy was conducted by χ^2 test.

[1] = Effect on endotoxin shock model (LPS, mouse survival); format: in vivo, mice; conditions: for survival number / survival rate %: male ICR mice, 10 per group, 4 days after administration
Procedure: (§1) Riboflavin sodium phosphate (FMN-Na, JP grade) and leucoflavin sodium phosphate (FMN-H2) prepared in Example 1 were used.
Male mice (Slc: ICR, 6-week old) (10 mice per each test group) was administered intraperitoneally with lipopolysaccharide from E. coli serum type 0111-B4 (Sigma; abbreviated as “LPS” hereinbelow) at a dose of 15 mg/kg.
Six hours after the administration, each of riboflavin sodium phosphate (dosage: […] in dosage volumes of 0.25, 0.5 and 1 ml, respectively) and leucoflavin phosphate (dosage: 2.5, 5 and 10 mg/kg in dosage volumes of 0.25, 0.5 and 1 ml, respectively) which had been dissolved in physiological saline and sterilized by filtration was administered intraperitoneally. The survival rate was determined 4 days after the administration. In the control group, 1.0 ml of physiological saline was administered intraperitoneally instead of the drugs. The determination of the medicinal efficacy was conducted by χ^2 test.

[2] = tested on: Staphylococcus aureus BO-72 strain; assay: Effect on Staphylococcus aureus-infected model (mouse survival); format: in vivo; conditions: for survival number / survival rate %: male ICR mice, 10 per group, 10 days after inoculation
Procedure: as §1
Male mice (Slc: ICR, 8-week old) (10 mice per each test group) was administered intraperitoneally with each of riboflavin sodium phosphate (dosage: 25, 50 and 100 mg/kg in dosage volumes of 0.25, 0.5 and 1 ml, respectively) and leucoflavin phosphate (dosage: 2.5, 5 and 10 mg/kg in dosage volumes of 0.25, 0.5 and 1 ml, respectively) which had been dissolved in physiological saline and sterilized by filtration. Twenty-four hours after the administration, Staphylococcus aureus BO-72 strain was administered intravenously at a dose of 8.7×10^7 CFU/mouse (suspended in 0.2 ml of physiological saline), and the survival rate was determined 10 days after the inoculation. In the control group, 1.0 ml of physiological saline was administered intraperitoneally instead of the drugs. The determination of the medicinal efficacy was conducted by χ^2 test.

[3] = 12.5 mg/kg i.p. 24 h before s.c. E. coli inoculation
[4] = 25 mg/kg i.p. 24 h before s.c. E. coli inoculation
[5] = 50 mg/kg i.p. 24 h before s.c. E. coli inoculation
[6] = 100 mg/kg i.p. 24 h before s.c. E. coli inoculation
[7] = 5 mg/kg i.p. 6 h after LPS 15 mg/kg i.p.
[8] = 10 mg/kg i.p. 6 h after LPS 15 mg/kg i.p.
[9] = 20 mg/kg i.p. 6 h after LPS 15 mg/kg i.p.
[10] = 25 mg/kg i.p. 24 h before i.v. S. aureus
[11] = 50 mg/kg i.p. 24 h before i.v. S. aureus
[12] = 100 mg/kg i.p. 24 h before i.v. S. aureus
[13] = 1.25 mg/kg i.p. 24 h before s.c. E. coli inoculation
[14] = 2.5 mg/kg i.p. 24 h before s.c. E. coli inoculation
[15] = 5 mg/kg i.p. 24 h before s.c. E. coli inoculation
[16] = 10 mg/kg i.p. 24 h before s.c. E. coli inoculation
[17] = 2.5 mg/kg i.p. 6 h after LPS 15 mg/kg i.p.
[18] = 2.5 mg/kg i.p. 24 h before i.v. S. aureus
[19] = 5 mg/kg i.p. 24 h before i.v. S. aureus
[20] = 10 mg/kg i.p. 24 h before i.v. S. aureus

**Q.** Which survival number (E. coli E01292 strain; [3]) does the source give for Cc1cc2nc3c(=O)[nH]c(=O)nc-3n(C[C@H](O)[C@H](O)[C@H](O)COP(=O)(O)O)c2cc1C [VB2Na, riboflavin sodium phosphate, reference compound] here?
**A.** 1

**Q.** What about the survival rate % (E. coli E01292 strain; [3]) of the same molecule?
**A.** 10%

**Q.** What about the survival number (E. coli E01292 strain; [4]) of the same molecule?
**A.** 3

**Q.** What about the survival rate % (E. coli E01292 strain; [4]) of the same molecule?
**A.** 30%

**Q.** And the survival number (E. coli E01292 strain; [5])?
**A.** 5

**Q.** What about the survival rate % (E. coli E01292 strain; [5]) of the same molecule?
**A.** 50%

**Q.** And the survival number (E. coli E01292 strain; [6])?
**A.** 9

**Q.** What about the survival rate % (E. coli E01292 strain; [6]) of the same molecule?
**A.** 90%

**Q.** And the survival number [1, 7]?
**A.** 3

**Q.** And the survival rate % [1, 7]?
**A.** 30%

**Q.** What about the survival number [1, 8] of the same molecule?
**A.** 4

**Q.** And the survival rate % [1, 8]?
**A.** 40%

**Q.** What about the survival number [1, 9] of the same molecule?
**A.** 7

**Q.** And the survival rate % [1, 9]?
**A.** 70%

**Q.** And the survival number [2, 10]?
**A.** 2

**Q.** And the survival rate % [2, 10]?
**A.** 20%

**Q.** What about the survival number [2, 11] of the same molecule?
**A.** 4

**Q.** What about the survival rate % [2, 11] of the same molecule?
**A.** 40%

**Q.** And the survival number [2, 12]?
**A.** 7

**Q.** And the survival rate % [2, 12]?
**A.** 70%

**Q.** With Cc1cc2c(cc1C)N(C[C@H](O)[C@H](O)[C@H](O)COP(=O)(O)O)c1[nH]c(=O)[nH]c(=O)c1N2 [FMN-H2, leucoflavin phosphate] as the molecule, how does the survival number (E. coli E01292 strain; [13]) read?
**A.** 0

**Q.** What about the survival rate % (E. coli E01292 strain; [13]) of the same molecule?
**A.** 10%

**Q.** And the survival number (E. coli E01292 strain; [14])?
**A.** 4

**Q.** What about the survival rate % (E. coli E01292 strain; [14]) of the same molecule?
**A.** 40%

**Q.** What about the survival number (E. coli E01292 strain; [15]) of the same molecule?
**A.** 6

**Q.** And the survival rate % (E. coli E01292 strain; [15])?
**A.** 60%

**Q.** What about the survival number (E. coli E01292 strain; [16]) of the same molecule?
**A.** 9

**Q.** What about the survival rate % (E. coli E01292 strain; [16]) of the same molecule?
**A.** 90%

**Q.** And the “infection-protective effect against E. coli compared with riboflavin sodium phosphate” value (E. coli E01292 strain; mice, from Table 1)?
**A.** about 10 fold

**Q.** What about the survival number [1, 17] of the same molecule?
**A.** 2

**Q.** What about the survival rate % [1, 17] of the same molecule?
**A.** 20%

**Q.** And the survival number [1, 7]?
**A.** 6

**Q.** What about the survival rate % [1, 7] of the same molecule?
**A.** 60%

**Q.** What about the survival number [1, 8] of the same molecule?
**A.** 8

**Q.** What about the survival rate % [1, 8] of the same molecule?
**A.** 80%

**Q.** And the “life-saving effect on endotoxin shock compared with riboflavin sodium phosphate” value ([1]; mice, from Table 3)?
**A.** about 2 fold

**Q.** And the survival number [2, 18]?
**A.** 3

**Q.** And the survival rate % [2, 18]?
**A.** 30%

**Q.** And the survival number [2, 19]?
**A.** 6

**Q.** What about the survival rate % [2, 19] of the same molecule?
**A.** 60%

**Q.** And the survival number [2, 20]?
**A.** 8

**Q.** And the survival rate % [2, 20]?
**A.** 80%

**Q.** What about the “infection-protective effect against Staphylococcus aureus compared with riboflavin sodium phosphate” value ([2]; mice, from Table 2) of the same molecule?
**A.** about 10 fold
